Test results from ChEMBL document CHEMBL1201862, “PubChem BioAssay data set” (2004).
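Five concentrations, 48 hours, 96-well plates. The concentration for 50% growth inhibition is given as GI50.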 The source made the active and inactive calls. Rule as the data show it: active = GI50 up to about 1.1 µM and inactive = higher.

Assays:
Test in all cases: inhibition of tumour cell growth, NCI panel, 48 h
HOP-18 = test system: HOP-18
DLD-1 = test system: DLD-1
M19-MEL = test system: M19-MEL
SNB-78 = test system: SNB-78
LXFL 529 = test system: LXFL 529
KM-20L2 = test system: KM-20L2
DMS-114 = test system: DMS-114
XF498 = test system: XF498
RXF 631 = test system: RXF 631

Measured: GI50

CN(C)c1ccc(/C=C/c2cc[n+](C)c3ccccc23)cc1
inactive: HOP-18 3.47 µM | DLD-1 2.68 µM | M19-MEL 1.44 µM | SNB-78 7.59 µM | LXFL 529 1.23 µM | KM-20L2 3.04 µM | DMS-114 2.3 µM

COc1ccc(OC)c(NC(=O)CCC/C(CC(=O)c2ccc(O)c(OC)c2)=N\Nc2ccc([N+](=O)[O-])cc2)c1
inactive: HOP-18 > 100 µM | XF498 41.1 µM | DLD-1 > 100 µM | M19-MEL > 100 µM | SNB-78 43.6 µM | LXFL 529 32.7 µM | KM-20L2 > 100 µM | RXF 631 96.4 µM | DMS-114 > 100 µM

CC(=O)NC(CCCCNC(=O)NCCCl)C(=O)NCc1ccccc1 (configuration not stated)
inactive: HOP-18 > 100 µM | XF498 > 100 µM | DLD-1 > 100 µM | M19-MEL > 100 µM | LXFL 529 > 100 µM | KM-20L2 > 100 µM | RXF 631 > 100 µM | DMS-114 > 100 µM

COC(=O)c1cc(C(=O)OC)c(CC(=O)C(=O)NC2C3CC4CC(C3)CC2C4)nc1CC(=O)C(=O)NC1C2CC3CC(C2)CC1C3 (configuration not stated)
inactive: HOP-18 > 100 µM | DLD-1 > 100 µM | M19-MEL > 100 µM | SNB-78 > 100 µM | LXFL 529 > 100 µM | KM-20L2 > 100 µM | DMS-114 > 100 µM

O=C1c2ccccc2N2OC3(N4CCOCC4)CCCC3C12c1ccccc1 (configuration not stated)
inactive: HOP-18 > 100 µM | XF498 > 100 µM | DLD-1 > 100 µM | M19-MEL > 100 µM | SNB-78 > 100 µM | LXFL 529 > 100 µM | KM-20L2 > 100 µM | DMS-114 > 100 µM

Clc1cccc(C2SCc3nc4ccccc4n32)c1 (configuration not stated)
inactive: HOP-18 18.5 µM | DLD-1 15.8 µM | M19-MEL 19.4 µM | SNB-78 22.1 µM | LXFL 529 19.9 µM

O=C(Nc1ccc(Br)cc1)C(=O)C(C(=O)c1ccc(Cl)c(Cl)c1)C1OC(=O)c2ccccc21 (configuration not stated)
inactive: HOP-18 14.4 µM | XF498 13.8 µM | DLD-1 18.3 µM | M19-MEL 15 µM | SNB-78 17.1 µM | LXFL 529 9.98 µM | KM-20L2 33 µM | DMS-114 10.9 µM

COC1(OC)CC2CCCCC2=C(C)N1S(=O)(=O)c1ccccc1 (configuration not stated)
inactive: HOP-18 > 100 µM | XF498 > 100 µM | DLD-1 > 100 µM | M19-MEL > 100 µM | SNB-78 > 100 µM | LXFL 529 > 100 µM | KM-20L2 > 100 µM | RXF 631 > 100 µM

[N-]=[N+]=Nc1nnc(CCCCc2nnc(N=[N+]=[N-])o2)o1
inactive: HOP-18 > 100 µM | XF498 > 100 µM | DLD-1 > 100 µM | M19-MEL > 100 µM | SNB-78 > 100 µM | LXFL 529 > 100 µM | KM-20L2 > 100 µM | RXF 631 25.4 µM | DMS-114 > 100 µM

COC(=O)/C=C(C)/C=C/C1OC(C)OCC1O (configuration not stated)
inactive: DLD-1 > 100 µM | M19-MEL > 100 µM | SNB-78 > 100 µM | LXFL 529 > 100 µM | KM-20L2 > 100 µM | DMS-114 > 100 µM

COC(=O)C(=O)C(C(=O)C(=O)Nc1cc([N+](=O)[O-])ccc1[N+](=O)[O-])c1nc2ccc(C(=O)c3ccccc3)cc2nc1O (configuration not stated)
inactive: HOP-18 8.02 µM | XF498 3.36 µM | DLD-1 52.2 µM | M19-MEL 28.4 µM | SNB-78 19.2 µM | LXFL 529 23.4 µM | RXF 631 49.3 µM | DMS-114 23.2 µM

Nc1nc2c(ncn2Cc2ccccc2CCO)c(=O)[nH]1
inactive: XF498 > 100 µM | M19-MEL > 100 µM | LXFL 529 > 100 µM | KM-20L2 > 100 µM | RXF 631 > 100 µM | DMS-114 > 100 µM

Oc1nc2cc(Cl)ccc2nc1/C(=N\Nc1ccccc1)C(O)c1ccc(Cl)c(Cl)c1 (configuration not stated)
inactive: DLD-1 > 100 µM | M19-MEL > 100 µM | SNB-78 > 100 µM | LXFL 529 > 100 µM | KM-20L2 > 100 µM | RXF 631 > 100 µM | DMS-114 > 100 µM

Cc1csc2nc(-c3ccncc3)cn12
inactive: HOP-18 > 57.9 µM | XF498 > 100 µM | DLD-1 > 63.1 µM | M19-MEL > 59.6 µM | SNB-78 > 100 µM | LXFL 529 > 51.3 µM | KM-20L2 > 65 µM | RXF 631 > 88.3 µM | DMS-114 > 42.1 µM

O=C1NC(c2ccc(O)cc2)C2CCC1C2 (configuration not stated)
inactive: XF498 > 100 µM | DLD-1 > 100 µM | M19-MEL > 100 µM | SNB-78 > 100 µM | LXFL 529 > 100 µM | KM-20L2 > 100 µM | DMS-114 > 100 µM

Nc1ncnc2c1sc(=S)n2-c1ccccc1
inactive: HOP-18 > 100 µM | XF498 > 100 µM | DLD-1 > 100 µM | M19-MEL > 100 µM | SNB-78 > 100 µM | LXFL 529 > 100 µM | KM-20L2 > 100 µM | DMS-114 > 100 µM

N#Cc1cc([N+](=O)[O-])ccc1NC(=O)C(F)(F)F
inactive: HOP-18 > 85.9 µM | XF498 > 100 µM | DLD-1 > 58.9 µM | M19-MEL > 100 µM | SNB-78 > 100 µM | LXFL 529 > 100 µM | KM-20L2 > 74.5 µM | DMS-114 > 40.8 µM

CCN(CC)c1ccc(/N=N/c2ccc(-c3nc4cccn(C)c-4n3)cc2)cc1
inactive: HOP-18 40.1 µM | XF498 14.1 µM | DLD-1 4.83 µM | M19-MEL 5.38 µM | SNB-78 16.7 µM | LXFL 529 3.95 µM | KM-20L2 5.32 µM | RXF 631 3.41 µM | DMS-114 3.61 µM

Cc1ccc(SC(C)/C=C/NNC2=NN=C(c3ccccc3)C(c3ccccc3)N2)cc1 (configuration not stated)
inactive: HOP-18 24.1 µM | DLD-1 27.4 µM | M19-MEL 36.6 µM | SNB-78 66.7 µM | LXFL 529 25.8 µM | KM-20L2 14 µM | DMS-114 28.8 µM

COC(=O)/C(=N/NC(C)(C)C)C(C(=O)C=C(C)C)C(=O)C(=O)Nc1ccc(Cl)cc1C (configuration not stated)
inactive: XF498 > 100 µM | M19-MEL > 100 µM | SNB-78 > 10 µM | LXFL 529 > 100 µM | KM-20L2 > 100 µM | DMS-114 > 100 µM

COc1ccc(C2Oc3c(c(O)cc4c3[C@H](c3ccc(O)cc3O)[C@H](O)C(c3ccc(O)c(O)c3)O4)C[C@@H]2O)cc1O (some centres not stated)
inactive: HOP-18 > 100 µM | DLD-1 > 100 µM | M19-MEL > 100 µM | SNB-78 > 100 µM | LXFL 529 > 100 µM | KM-20L2 > 100 µM | DMS-114 > 100 µM
